The source of these data is patent publication US20060241124A1, “Combinations comprising paroxetine and 2- (s) - (4-fluoro-2-methyl-phenyl) -piperazine-1-carboxylic acid [1- (r)- (3,5-bis-trifluoro-2-methyl-phenyl) -ethyl]-methyl amide for treatment of depression and/or anxiety” (priority 2003, published 2006).

Where a name gives a salt, the structure may show the parent alone.

For the experiment, the system named is mongolian gerbils. In words: gerbil social interaction model (time spent in active social interactions). To be noted: one hour after administration. The class given is in vivo. The method, then:
Paroxetine hydrochloride hemihydrate (0.3 mg/kg p.o of the paroxetine measured as the free base.), 2-(S)-(4-Fluoro-2-methyl-phenyl)-piperazine-1-carboxylic acid [1-(R)-(3,5-bis-trifluoromethyl-phenyl)-ethyl]-methyl-amide methansulphonate (hereinafter compound A) (0.1 mg/kg i.p of the compound A measured as the free base) and a combination of paroxetine (0.3 mg/kg p.o. of the paroxetine measured as the free base) and compound A (0.1 mg/kg i.p. of the compound A measured as the free base) were administered independently in mongolian gerbils to assess the effect on time spent in active social interactions.
The results obtained one hour after administration, expressed as a percentage variation of the time spent in active social interactions by each animal in respect to the value obtained by treatment of control animals, are summarised in table 1.

In the case of `Fc1ccc([C@@H]2CCNC[C@H]2COc2ccc3c(c2)OCO3)cc1` [Paroxetine hydrochloride hemihydrate, (−) trans-4-(4′-fluorophenyl)3-(3′-4′-methylenedioxyphenoxymethyl)piperidine], the “% variation of the time spent in active social interactions in respect to control animals” value (0.3 mg/kg p.o. (measured as the free base)) is on record as −2%.

Consider `CS(=O)(=O)O.Cc1cc(F)ccc1[C@H]1CNCCN1C(=O)N(C)[C@H](C)c1cc(C(F)(F)F)cc(C(F)(F)F)c1` [Compound A, 2-(S)-(4-Fluoro-2-methyl-phenyl)-piperazine-1-carboxylic acid [1-(R)-(3,5-bis-trifluoromethyl-phenyl)-ethyl]-methyl-amide methansulphonate], for which, where the note is “0.1 mg/kg i.p. (measured as the free base)”, the “% variation of the time spent in active social interactions in respect to control animals” value is −8%.
